Source: patent US20250261636A1, “QUATERNARY AMMONIUM SANITIZING COMPOSITION” (ECOLAB USA INC., priority 2020, published 2025)
“And” between values parts separate entries of the source, which are not always exact repeats. Equal entries are not always repeated.

How the values were obtained:
[1] = tested on: Escherichia coli ATCC 11229; test: AOAC Method 960.09 Germicidal and Detergent Sanitizing Action of Disinfectants, food contact sanitizing suspension test; format: cell-based
Procedure: (§1) The microbial efficacy of the multipurpose sanitizing composition was evaluated for food contact applications. The purpose of the testing is to determine the efficacy of compositions used for sanitizing food contact surfaces, which in the evaluations were pre-cleaned, non-porous surfaces using AOAC Method 960.09 Germicidal and Detergent Sanitizing Action of Disinfectants. […] The test organisms included Staphylococcus aureus ATCC 6538 and Escherichia coli ATCC 11229.
(§2) The pH was adjusted by use of a polycarboxylic acid (unless otherwise noted, such as the polycarboxylate citrate tested at pH 8). In this screening test pH 9, 8, 7, 5, 4, and 3 were tested. “NT” indicates a condition was “Not Tested.”

[2] = tested on: Staphylococcus aureus ATCC 6538; test: as above; format: cell-based; details: for Average Log Reduction / CFU - Dilution 1E−01 / CFU - Dilution 1E−02 / CFU/mL / Log / Log Reduction: 50 ppm; for Average Log Reduction / CFU - Dilution 1E−01 / CFU - Dilution 1E−02 / CFU/mL / Log: Example 4; for Log Reduction: Example 4, per replicate
Procedure: as §1, §2

[3] = 30 ppm, pH 7, 120° F., per replicate
[4] = 50 ppm, pH 4, 77° F., Example 4
[5] = 50 ppm, pH 5, 77° F., Example 4
[6] = 50 ppm, pH 6, 77° F., Example 4
[7] = 50 ppm, pH 7, 77° F., Example 3
[8] = 50 ppm, pH 7 as printed (second sample of Table 15), 77° F.
[9] = 50 ppm, pH 7.5-8 (no pH adjustment), 77° F., Example 4
[10] = pH 7.5-8 (no pH adjustment), 77° F.

didecyl dimethyl ammonium carbonate/bicarbonate [CarboQuat]
log reduction E. coli (ATCC 11229) ([1]; 20 ppm, pH 5, 120° F.): 5.08 log | log reduction E. coli (ATCC 11229) ([1]; 30 ppm, pH 3, 120° F.): 6.25 log | log reduction E. coli (ATCC 11229) ([1]; 30 ppm, pH 4, 120° F.): 6.88 log | Average Log Reduction ([1]; 30 ppm, pH 5, 104° F.): 5.61 log | CFU - Dilution 1E−01 ([1]; 30 ppm, pH 5, 104° F.): 14 CFU and 28 CFU | CFU - Dilution 1E−02 ([1]; 30 ppm, pH 5, 104° F.): 3 CFU and 6 CFU | Log Reduction ([1]; 30 ppm, pH 5, 104° F., per replicate): 5.76 log and 5.46 log | log reduction E. coli (ATCC 11229) ([1]; 30 ppm, pH 5, citric acid, 120° F.): 6.67 log | log reduction E. coli (ATCC 11229) ([1]; 30 ppm, pH 5, formic acid, 120° F.): 6.67 log | Average Log Reduction ([1]; 30 ppm, pH 7, 104° F.): 3.47 log | CFU - Dilution 1E−01 ([1]; 30 ppm, pH 7, 104° F.): TNTC | CFU - Dilution 1E−02 ([1]; 30 ppm, pH 7, 104° F.): TNTC | CFU/mL ([1]; 30 ppm, pH 7, 104° F.): 3.00E+04 CFU/mL | Log ([1]; 30 ppm, pH 7, 104° F.): 4.48 | Log Reduction ([1]; 30 ppm, pH 7, 104° F., per replicate): 3.47 log | Average Log Reduction ([1]; 30 ppm, pH 7, 120° F.): 6.68 log | CFU - Dilution 1E−01 ([1]; 30 ppm, pH 7, 120° F.): 0 CFU | CFU - Dilution 1E−02 ([1]; 30 ppm, pH 7, 120° F.): 0 CFU | CFU/mL ([1]; 30 ppm, pH 7, 120° F.): 1E+01 CFU/mL | Log ([1]; 30 ppm, pH 7, 120° F.): 1.00 | Log Reduction [1, 3]: 6.68 log | Average Log Reduction ([1]; 30 ppm, pH 8, 120° F.): 3.21 log | CFU - Dilution 1E−01 ([1]; 30 ppm, pH 8, 120° F.): TNTC | CFU - Dilution 1E−02 ([1]; 30 ppm, pH 8, 120° F.): TNTC | CFU/mL ([1]; 30 ppm, pH 8, 120° F.): 3.00E+04 CFU/mL | Log ([1]; 30 ppm, pH 8, 120° F.): 4.48 | Log Reduction ([1]; 30 ppm, pH 8, 120° F., per replicate): 3.21 log | log reduction E. coli (ATCC 11229) ([1]; 30 ppm, pH 8, citrate, 120° F.): 3.20 log | Average Log Reduction ([1]; 40 ppm, pH 8, 120° F.): 5.70 log | Log Reduction ([1]; 40 ppm, pH 8, 120° F., per replicate): 5.28 log and 6.12 log | Average Log Reduction [1, 4]: 5.22 log | CFU - Dilution 1E−01 [1, 4]: 44 CFU | CFU - Dilution 1E−02 [1, 4]: 7 CFU and 4 CFU | CFU/mL [1, 4]: 4.6E+02 CFU/mL and 4.4E+02 CFU/mL | Log [1, 4]: 2.67 and 2.64 | Log Reduction ([1]; 50 ppm, pH 4, 77° F., Example 4, per replicate): 5.21 log and 5.23 log | log reduction E. coli (ATCC 11229) ([1]; 50 ppm, pH 5, 77° F., Example 3): 6.70 log | Average Log Reduction [1, 5]: 6.87 log | CFU - Dilution 1E−01 [1, 5]: 0 CFU | CFU - Dilution 1E−02 [1, 5]: 0 CFU | CFU/mL [1, 5]: 1.0E+01 CFU/mL | Log [1, 5]: 1.00 | Log Reduction ([1]; 50 ppm, pH 5, 77° F., Example 4, per replicate): 6.87 log | log reduction E. coli (ATCC 11229) ([1]; 50 ppm, pH 5, 104° F.): 6.95 log | Average Log Reduction [1, 6]: 4.07 log | CFU - Dilution 1E−01 [1, 6]: TNTC | CFU - Dilution 1E−02 [1, 6]: 84 CFU and 48 CFU | CFU/mL [1, 6]: 8.4E+03 CFU/mL and 4.8E+03 CFU/mL | Log [1, 6]: 3.92 and 3.68 | Log Reduction ([1]; 50 ppm, pH 6, 77° F., Example 4, per replicate): 3.95 log and 4.19 log | Average Log Reduction [1, 7]: 3.35 log | CFU - Dilution 1E−01 [1, 7]: TNTC | CFU - Dilution 1E−02 [1, 7]: TNTC | CFU/mL [1, 7]: 3.00E+04 CFU/mL | Log [1, 7]: 4.48 | Log Reduction ([1]; 50 ppm, pH 7, 77° F., Example 3, per replicate): 3.35 log | log reduction E. coli (ATCC 11229) ([1]; 50 ppm, pH 7, 104° F.): 6.71 log | Average Log Reduction [1, 8]: 6.70 log | CFU - Dilution 1E−01 [1, 8]: 2 CFU and 1 CFU | CFU - Dilution 1E−02 [1, 8]: 0 CFU | CFU/mL [1, 8]: 2E+01 CFU/mL and 1E+01 CFU/mL | Log [1, 8]: 1.26 and 1.00 | Log Reduction ([1]; 50 ppm, pH 7 as printed (second sample of Table 15), 77° F., per replicate): 6.57 log and 6.83 log | Average Log Reduction [1, 9]: 3.40 log | CFU - Dilution 1E−01 [1, 9]: TNTC | CFU - Dilution 1E−02 [1, 9]: TNTC | CFU/mL [1, 9]: 3.0E+04 CFU/mL | Log [1, 9]: 4.48 | Log Reduction ([1]; 50 ppm, pH 7.5-8 (no pH adjustment), 77° F., Example 4, per replicate): 3.40 log | log reduction E. coli (ATCC 11229) ([1]; 50 ppm, pH 9, 77° F., Example 3): 3.35 log | log reduction E. coli (ATCC 11229) ([1]; 50 ppm, pH 9, 104° F.): 5.33 log | log reduction E. coli (ATCC 11229) ([1]; 75 ppm, pH 5, 77° F., Example 3): 6.83 log | log reduction E. coli (ATCC 11229) ([1]; 75 ppm, pH 5, 104° F.): 6.95 log | log reduction E. coli (ATCC 11229) ([1]; 75 ppm, pH 7, 77° F., Example 3): 6.83 log | log reduction E. coli (ATCC 11229) ([1]; 75 ppm, pH 7, 104° F.): 6.95 log | log reduction E. coli (ATCC 11229) ([1]; 75 ppm, pH 9, 77° F., Example 3): 6.50 log | log reduction E. coli (ATCC 11229) ([1]; 75 ppm, pH 9, 104° F.): 6.95 log | log reduction E. coli (ATCC 11229) ([1]; 100 ppm, pH 5, 77° F., Example 3): 6.83 log | log reduction E. coli (ATCC 11229) ([1]; 100 ppm, pH 9, 77° F., Example 3): 6.83 log | log reduction S. aureus (ATCC 6538) ([2]; 20 ppm, pH 5, 120° F.): 6.88 log | log reduction S. aureus (ATCC 6538) ([2]; 30 ppm, pH 5, 120° F.): 6.69 log and 6.88 log | log reduction S. aureus (ATCC 6538) ([2]; 30 ppm, pH 8, 120° F.): 6.69 log | log reduction S. aureus (ATCC 6538) ([2]; 40 ppm, pH 8, 120° F.): 6.69 log | Average Log Reduction ([2]; pH 4, 77° F.): 6.89 log | CFU - Dilution 1E−01 ([2]; pH 4, 77° F.): 0 CFU | CFU - Dilution 1E−02 ([2]; pH 4, 77° F.): 0 CFU | CFU/mL ([2]; pH 4, 77° F.): 1.0E+01 CFU/mL | Log ([2]; pH 4, 77° F.): 1.00 | Log Reduction ([2]; pH 4, 77° F.): 6.89 log | Average Log Reduction ([2]; pH 5, 77° F.): 6.89 log | CFU - Dilution 1E−01 ([2]; pH 5, 77° F.): 0 CFU | CFU - Dilution 1E−02 ([2]; pH 5, 77° F.): 0 CFU | CFU/mL ([2]; pH 5, 77° F.): 1.0E+01 CFU/mL | Log ([2]; pH 5, 77° F.): 1.00 | Log Reduction ([2]; pH 5, 77° F.): 6.89 log | Average Log Reduction ([2]; pH 6, 77° F.): 6.89 log | CFU - Dilution 1E−01 ([2]; pH 6, 77° F.): 0 CFU | CFU/mL ([2]; pH 6, 77° F.): 1.0E+01 CFU/mL | Log ([2]; pH 6, 77° F.): 1.00 | Log Reduction ([2]; pH 6, 77° F.): 6.89 log | Average Log Reduction [2, 10]: 6.89 log | CFU - Dilution 1E−01 [2, 10]: 0 CFU | CFU - Dilution 1E−02 [2, 10]: 0 CFU | CFU/mL [2, 10]: 1.0E+01 CFU/mL | Log [2, 10]: 1.00 | Log Reduction [2, 10]: 6.89 log

CCCCCCCCCC[N+](C)(C)CCCCCCCCCC.[Cl-] [Bardac 2250, didecyl dimethyl ammonium chloride]
Average Log Reduction ([1]; 30 ppm, pH 5, 120° F.): 6.83 log | Average Log Reduction ([1]; 30 ppm, pH 7, 120° F.): 3.33 log | CFU - Dilution 1E−01 ([1]; 30 ppm, pH 7, 120° F.): TNTC | CFU - Dilution 1E−02 ([1]; 30 ppm, pH 7, 120° F.): TNTC | CFU/mL ([1]; 30 ppm, pH 7, 120° F.): 3.00E+04 CFU/mL | Log Reduction [1, 3]: 3.33 log | Average Log Reduction ([1]; 30 ppm, pH 9, 120° F.): 3.33 log | CFU - Dilution 1E−01 ([1]; 30 ppm, pH 9, 120° F.): TNTC | CFU - Dilution 1E−02 ([1]; 30 ppm, pH 9, 120° F.): TNTC | CFU/mL ([1]; 30 ppm, pH 9, 120° F.): 3.00E+04 CFU/mL | Log ([1]; 30 ppm, pH 9, 120° F.): 4.48 | Log Reduction ([1]; 30 ppm, pH 9, 120° F., per replicate): 3.33 log | Average Log Reduction ([1]; 40 ppm, pH 7, 120° F.): 5.02 log | Average Log Reduction ([1]; 40 ppm, pH 9, 120° F.): 4.63 log | CFU - Dilution 1E−01 ([1]; 40 ppm, pH 9, 120° F.): 192 CFU and 120 CFU | CFU - Dilution 1E−02 ([1]; 40 ppm, pH 9, 120° F.): 12 CFU and 14 CFU | CFU/mL ([1]; 40 ppm, pH 9, 120° F.): 1.85E+03 CFU/mL and 1.22E+03 CFU/mL | Log ([1]; 40 ppm, pH 9, 120° F.): 3.27 and 3.09 | Log Reduction ([1]; 40 ppm, pH 9, 120° F., per replicate): 4.54 log and 4.72 log | log reduction E. coli (ATCC 11229) ([1]; 50 ppm, pH 7, 120° F.): 6.71 log | log reduction S. aureus (ATCC 6538) ([2]; 30 ppm, pH 5, 120° F.): 6.88 log
